{"source": "ChEMBL document CHEMBL3286089", "about": "“Multiparameter optimization in CNS drug discovery: design of pyrimido[4,5-d]azepines as potent 5-hydroxytryptamine 2C (5-HT₂C) receptor agonists with exquisite functional selectivity over 5-HT₂A and 5-HT₂B receptors” (J Med Chem, 2014)", "key": {"[1]": {"experiment": "Octanol-water partition coefficient, log D of the compound at pH 7.4", "format": "physicochemical"}, "[2]": {"experiment": "Intrinsic clearance in human liver microsomes", "format": "ADME", "conditions": "read-out: CLH"}, "[3]": {"experiment": "Intrinsic clearance in dog liver microsomes", "format": "ADME, Canis lupus familiaris"}, "[4]": {"experiment": "Intrinsic clearance in human hepatocytes assessed as 10^6 cells", "format": "ADME, cell-based, Hepatocyte", "conditions": "read-out: CLH"}, "[5]": {"experiment": "Dissociation constant, pKa of the compound", "format": "physicochemical"}, "[6]": {"experiment": "Intrinsic clearance in rat liver microsomes", "format": "ADME", "conditions": "read-out: CLH"}}, "data": [{"smiles": "CNc1nc(Cc2ccccc2)nc2c1CCNC[C@H]2C", "values": [{"measurement": "logD", "setting": "[1]", "result": 0.7}]}, {"smiles": "CNc1nc(Cc2ccccc2)nc2c1CCNC[C@@H]2C", "values": [{"measurement": "microsomal CLint", "setting": "[2]", "result": 16, "unit": "µL/min/mg"}, {"measurement": "microsomal CLint", "setting": "[3]", "result": 114, "unit": "µL/min/mg"}, {"measurement": "hepatocyte CLint", "setting": "[4]", "result": 3.4, "unit": "µL/min/1e6 cells"}, {"measurement": "logD", "setting": "[1]", "result": 0.7}, {"measurement": "pKa", "setting": "[5]", "result": 8.6}, {"measurement": "microsomal CLint", "setting": "[6]", "result": 329, "unit": "µL/min/mg"}]}, {"smiles": "Nc1nc(Cc2ccccc2)nc2c1CCNCC2", "values": [{"measurement": "logD", "setting": "[1]", "result": 0.1}]}]}
